According to patent US20260042731A1, “(2,4-DICHLOROPHENOXY)ACETIC ACID ANALOGS” (CORTEVA AGRISCIENCE LLC, priority 2022, published 2026):
Where two headings read alike, the source gives them in different places.

What was measured:
[1] = test system: Abutilon theophrasti (ABUTH), velvetleaf; test: Postemergence herbicide evaluation, growth of Abutilon theophrasti (ABUTH); assay type: in vivo; settings: Abutilon theophrasti, post-emergence
[2] = Volatility of compounds measured by thermogravimetric analysis (TGA); assay type: physicochemical
[3] = test system: Ambrosia artemisiifolia (AMBEL), common ragweed; test: Postemergence herbicide evaluation, growth of Ambrosia artemisiifolia (AMBEL); assay type: in vivo; settings: Ambrosia artemisiifolia, post-emergence
[4] = test system: weeds ABUTH, AMATA, AMBEL, CHEAL, ERICA; test: Postemergence herbicide evaluation, overall average % weed control across ABUTH, AMATA, AMBEL, CHEAL and ERICA; assay type: in vivo; settings: post-emergence, read-out: Overall Ave % Weed Control
[5] = test system: Amaranthus rudis (AMATA), tall water hemp; test: Postemergence herbicide evaluation, growth of Amaranthus rudis (AMATA); assay type: in vivo; settings: Amaranthus tuberculatus, post-emergence
[6] = test system: Chenopodium album (CHEAL), common lambsquarters; test: Postemergence herbicide evaluation, growth of Chenopodium album (CHEAL); assay type: in vivo; settings: Chenopodium album, post-emergence
[7] = test system: glyphosate resistant Conyza canadensis (L.) (ERICA), horseweed; test: Postemergence herbicide evaluation, growth of Conyza canadensis (ERICA); assay type: in vivo; settings: Erigeron canadensis, post-emergence; for pest or weed control at 280 g/ha: 280 g ae/ha; for pest or weed control at 560 g/ha: 560 g ae/ha
[8] = test system: weeds (ABUTH, AMATA, AMBEL, CHEAL, ERICA); test: Postemergence herbicide evaluation, overall average % weed control across ABUTH, AMATA, AMBEL, CHEAL, ERICA; assay type: in vivo; settings: post-emergence, average over the five weeds, read-out: Overall Ave % Weed Control; for pest or weed control at 280 g/ha: 280 g ae/ha; for pest or weed control at 560 g/ha: 560 g ae/ha
[9] = test system: weeds ABUTH, AMATA, AMBEL, CHEAL, ERICA; test: Postemergence herbicide evaluation, overall average % weed control (ABUTH, AMATA, AMBEL, CHEAL, ERICA); assay type: in vivo; settings: post-emergence, 168 h, 7 DAA, read-out: Overall Ave % Weed Control
[10] = 168 h, 7 DAA, read-out: Ave. ERICA, percent reduction in plant size relative to the untreated control
[11] = 336 h, 14 DAA, percent reduction in plant size relative to untreated control, read-out: Ave. ERICA
[12] = 504 h, 21 DAA, percent reduction in plant size relative to untreated control, read-out: Ave. ERICA

## O=C(COc1ccc(Cl)cc1Cl)OCCOC(=O)COc1ccc(Cl)cc1Cl [Compound B9]
[1]; 168 h, read-out: AVE. ABUTH
  pest or weed control at 280 g/ha: 57.5%
  pest or weed control at 560 g/ha: 57.5%
[1]; 336 h, read-out: AVE. ABUTH
  pest or weed control at 280 g/ha: 77.5%
  pest or weed control at 560 g/ha: 70%
[1]; 504 h, read-out: AVE. ABUTH
  pest or weed control at 280 g/ha: 98.5%
  pest or weed control at 560 g/ha: 75%
[2]
  TGA Data (rate of weight loss, volatility): 0.1482 µg/min
[3]; 168 h, read-out: AVE. AMBEL
  pest or weed control at 280 g/ha: 77.5%
  pest or weed control at 560 g/ha: 74%
[3]; 336 h, read-out: AVE. AMBEL
  pest or weed control at 280 g/ha: 70%
  pest or weed control at 560 g/ha: 85%
[3]; 504 h, read-out: AVE. AMBEL
  pest or weed control at 280 g/ha: 100%
  pest or weed control at 560 g/ha: 100%
[4]; 168 h
  pest or weed control at 280 g/ha: 75%
  pest or weed control at 560 g/ha: 72.3%
[4]; 336 h
  pest or weed control at 280 g/ha: 86.5%
  pest or weed control at 560 g/ha: 86.6%
[4]; 504 h
  pest or weed control at 280 g/ha: 92.5%
  pest or weed control at 560 g/ha: 89.9%
[5]; 168 h, read-out: Ave. AMATA
  pest or weed control at 280 g/ha: 72.5%
  pest or weed control at 560 g/ha: 77.5%
[5]; 336 h, read-out: Ave. AMATA
  pest or weed control at 280 g/ha: 91%
  pest or weed control at 560 g/ha: 90%
[5]; 504 h, read-out: Ave. AMATA
  pest or weed control at 280 g/ha: 70%
  pest or weed control at 560 g/ha: 82.5%
[6]; 168 h, read-out: Ave. CHEAL
  pest or weed control at 280 g/ha: 82.5%
  pest or weed control at 560 g/ha: 77.5%
[6]; 336 h, read-out: Ave. CHEAL
  pest or weed control at 280 g/ha: 94%
  pest or weed control at 560 g/ha: 95%
[6]; 504 h, read-out: Ave. CHEAL
  pest or weed control at 280 g/ha: 97.5%
  pest or weed control at 560 g/ha: 92.5%

## N/C(=N\OC(=O)COc1ccc(Cl)cc1Cl)c1ccco1 [Compound A5]
[1]; 168 h, 280 g ae/ha, 7 DAA, read-out: AVE. ABUTH, percent reduction in plant size relative to the untreated control
  pest or weed control at 280 g/ha: 38%
[1]; 168 h, 560 g ae/ha, 7 DAA, read-out: AVE. ABUTH, percent reduction in plant size relative to the untreated control
  pest or weed control at 560 g/ha: 43%
[1]; 336 h, 280 g ae/ha, 14 DAA, percent reduction in plant size relative to untreated control, read-out: AVE. ABUTH
  pest or weed control at 280 g/ha: 40%
[1]; 336 h, 560 g ae/ha, 14 DAA, percent reduction in plant size relative to untreated control, read-out: AVE. ABUTH
  pest or weed control at 560 g/ha: 53%
[1]; 504 h, 280 g ae/ha, 21 DAA, percent reduction in plant size relative to untreated control, read-out: AVE. ABUTH
  pest or weed control at 280 g/ha: 30%
[1]; 504 h, 560 g ae/ha, 21 DAA, percent reduction in plant size relative to untreated control, read-out: AVE. ABUTH
  pest or weed control at 560 g/ha: 50%
[7]; [10]
  pest or weed control at 280 g/ha: 70%
  pest or weed control at 560 g/ha: 73%
[7]; [11]
  pest or weed control at 280 g/ha: 83%
  pest or weed control at 560 g/ha: 85%
[7]; [12]
  pest or weed control at 280 g/ha: 88%
  pest or weed control at 560 g/ha: 88%
[2]
  TGA Data (rate of weight loss, volatility): 1.2 µg/min
[3]; 168 h, 280 g ae/ha, 7 DAA, read-out: AVE. AMBEL, percent reduction in plant size relative to the untreated control
  pest or weed control at 280 g/ha: 60%
[3]; 168 h, 560 g ae/ha, 7 DAA, read-out: AVE. AMBEL, percent reduction in plant size relative to the untreated control
  pest or weed control at 560 g/ha: 60%
[3]; 336 h, 280 g ae/ha, 14 DAA, percent reduction in plant size relative to untreated control, read-out: AVE. AMBEL
  pest or weed control at 280 g/ha: 78%
[3]; 336 h, 560 g ae/ha, 14 DAA, percent reduction in plant size relative to untreated control, read-out: AVE. AMBEL
  pest or weed control at 560 g/ha: 85%
[3]; 504 h, 280 g ae/ha, 21 DAA, percent reduction in plant size relative to untreated control, read-out: AVE. AMBEL
  pest or weed control at 280 g/ha: 78%
[3]; 504 h, 560 g ae/ha, 21 DAA, percent reduction in plant size relative to untreated control, read-out: AVE. AMBEL
  pest or weed control at 560 g/ha: 85%
[8]; 336 h, 14 DAA
  pest or weed control at 280 g/ha: 68%
  pest or weed control at 560 g/ha: 71%
[8]; 504 h, 21 DAA
  pest or weed control at 280 g/ha: 67%
  pest or weed control at 560 g/ha: 72%
[5]; 168 h, 280 g ae/ha, 7 DAA, read-out: Ave. AMATA, percent reduction in plant size relative to the untreated control
  pest or weed control at 280 g/ha: 70%
[5]; 168 h, 560 g ae/ha, 7 DAA, read-out: Ave. AMATA, percent reduction in plant size relative to the untreated control
  pest or weed control at 560 g/ha: 65%
[5]; 336 h, 280 g ae/ha, 14 DAA, percent reduction in plant size relative to untreated control, read-out: Ave. AMATA
  pest or weed control at 280 g/ha: 73%
[5]; 336 h, 560 g ae/ha, 14 DAA, percent reduction in plant size relative to untreated control, read-out: Ave. AMATA
  pest or weed control at 560 g/ha: 68%
[5]; 504 h, 280 g ae/ha, 21 DAA, percent reduction in plant size relative to untreated control, read-out: Ave. AMATA
  pest or weed control at 280 g/ha: 73%
[5]; 504 h, 560 g ae/ha, 21 DAA, percent reduction in plant size relative to untreated control, read-out: Ave. AMATA
  pest or weed control at 560 g/ha: 70%
[9]; 280 g ae/ha
  pest or weed control at 280 g/ha: 60%
[9]; 560 g ae/ha
  pest or weed control at 560 g/ha: 61%
[6]; 168 h, 280 g ae/ha, 7 DAA, read-out: Ave. CHEAL, percent reduction in plant size relative to the untreated control
  pest or weed control at 280 g/ha: 60%
[6]; 168 h, 560 g ae/ha, 7 DAA, read-out: Ave. CHEAL, percent reduction in plant size relative to the untreated control
  pest or weed control at 560 g/ha: 63%
[6]; 336 h, 280 g ae/ha, 14 DAA, percent reduction in plant size relative to untreated control, read-out: Ave. CHEAL
  pest or weed control at 280 g/ha: 68%
[6]; 336 h, 560 g ae/ha, 14 DAA, percent reduction in plant size relative to untreated control, read-out: Ave. CHEAL
  pest or weed control at 560 g/ha: 63%
[6]; 504 h, 280 g ae/ha, 21 DAA, percent reduction in plant size relative to untreated control, read-out: Ave. CHEAL
  pest or weed control at 280 g/ha: 68%
[6]; 504 h, 560 g ae/ha, 21 DAA, percent reduction in plant size relative to untreated control, read-out: Ave. CHEAL
  pest or weed control at 560 g/ha: 65%
